The values below come from publication PMC11091220, “Metabolism-driven in vitro/in vivo disconnect of an oral ERɑ VHL-PROTAC” (Communications Biology, 2024).

Values joined by “and” are separate entries in the source; they are usually repeats but may differ in a detail not shown here. Identical values can stand only once. Like-named read-outs stand apart in the source and are kept apart here.

Data set [1] addresses T1, recombinant human ERα ligand binding domain (LBD) (Homo sapiens, UniProt P03372).
T1 construct: purchased Invitrogen PV4543
T1 sequence (P03372 311-547 limits assumed): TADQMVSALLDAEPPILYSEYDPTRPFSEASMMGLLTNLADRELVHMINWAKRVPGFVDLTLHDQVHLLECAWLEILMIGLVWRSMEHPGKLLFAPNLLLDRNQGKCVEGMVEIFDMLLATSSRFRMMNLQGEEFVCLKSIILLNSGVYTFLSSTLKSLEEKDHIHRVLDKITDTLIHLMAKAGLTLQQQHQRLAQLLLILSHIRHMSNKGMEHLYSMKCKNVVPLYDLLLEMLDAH
Briefly: ERα binding assay (LanthaScreen TR-FRET competition). As for the experimental part: The ability of compounds to bind to isolated ERα Ligand binding domain (ERα–LBD (GST)) was assessed in competition assays using a LanthaScreenTM Time-Resolved Fluorescence Resonance Energy Transfer (TR-FRET) detection end-point. For the LanthaScreen TR-FRET endpoint, a suitable fluorophore (Fluormone ES2, Product code P2645) and recombinant human ERα ligand binding domain (LBD) (product code PV4543) were purchased from Invitrogen and used to measure compound binding. A terbium-labelled anti-GST antibody (Product code PV3551) is used to indirectly label the receptor by binding to its GST tag, and competitive binding is detected by a test compounds’ ability to displace the fluorescent ligand resulting in a loss of TR-FRET signal between the Tb-anti-GST antibody and the tracer. The assay was performed with all reagent additions carried out using the Beckman Coulter BioRAPTR FRD microfluidic workstation: […]
For orientation: TR-FRET usually uses a lanthanide donor and a delayed reading to cut background.

The target in another data set is T2, ERα (Homo sapiens, UniProt P03372).
T2 construct: endogenous in cells; host or cells: MCF7 (also MCF7 engineered to express Cas9)
T2 sequence (P03372 1-595): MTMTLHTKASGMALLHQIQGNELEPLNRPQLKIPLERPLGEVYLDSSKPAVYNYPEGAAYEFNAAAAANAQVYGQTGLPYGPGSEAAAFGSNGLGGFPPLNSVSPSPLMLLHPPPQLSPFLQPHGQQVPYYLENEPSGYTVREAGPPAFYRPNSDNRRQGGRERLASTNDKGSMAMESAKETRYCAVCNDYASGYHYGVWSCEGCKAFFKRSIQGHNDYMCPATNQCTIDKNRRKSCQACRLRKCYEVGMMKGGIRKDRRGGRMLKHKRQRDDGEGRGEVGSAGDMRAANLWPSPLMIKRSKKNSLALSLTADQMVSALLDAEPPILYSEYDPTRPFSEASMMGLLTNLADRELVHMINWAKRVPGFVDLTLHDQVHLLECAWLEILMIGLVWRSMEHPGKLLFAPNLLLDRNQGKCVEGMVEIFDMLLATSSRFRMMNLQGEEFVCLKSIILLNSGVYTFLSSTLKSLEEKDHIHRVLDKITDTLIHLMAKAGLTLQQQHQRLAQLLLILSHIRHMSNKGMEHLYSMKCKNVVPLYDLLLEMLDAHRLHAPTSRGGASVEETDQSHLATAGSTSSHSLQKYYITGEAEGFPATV
Description: ERα high throughput imaging degradation assay in MCF7 cells. In kind it is cell-based. The note with it: for Dmax: MCF7; for DC50: MCF7 cells, 20 to 24 hours; for Degradation vs fulvestrant: listed as Cmp 7. As for the experimental part:
Cells were fixed, permeabilised and stained with anti-ERα (rabbit clone SP1, Thermo) and anti-PR (mouse clone PgR 636, Dako) antibodies followed by secondary AlexaFluor 594 goat anti-rabbit and AlexaFluor 488 goat anti-mouse IgG antibodies. Imaging was using the Thermo Cellinsight scanner and average fluorescence intensity was analysed using Genedata.

Data set [2] can be described thus: Mouse hepatocyte intrinsic clearance. In kind it is in vitro ADME. The note with it: for hepatocyte CLint at 1 µM: male, CD-1, mouse, hepatocytes. As for the experimental part:
Livers from CD-1 male mice weighing 30-35 g were digested and perfused using D-Hanks solution containing EDTA or collagenase. Once digested the liver was transferred to a petri dish and the hepatocytes were prepared by washing and centrifuging with a Leibovitz-15 medium containing 50% isotonic percoll. A cell viability >80% was required to progress the cells. The test compound was prepared to 10 mM in 100% DMSO and further diluted to 100 μM in 100% acetonitrile. The hepatocyte incubations were prepared in Leibovitz’s L-15 Medium pH 7.4 containing 1 million hepatocytes/mL and a final compound concentration of 1 µM. Cell viability was determined using a Cellometer Vision and >80% cell viability was required to proceed with the compound incubation. The compound/cell solution (250 µL) was incubated for 2 h at 37 °C and shaken at 900 rpm on an Eppendorf Thermomixer Comfort plate shaker. Samples (20 µL) were taken at 0.5, 5, 15, 30, 45, 60, 80, 100, and 120 min and quenched with 100 μL of 100% ice-cold acetonitrile. Samples were shaken at 800 rpm for 2 min and centrifuged at 4000 rpm for 20 min at 4 °C to pellet precipitated protein. The supernatant fraction was diluted 1:5 with deionised water, shaken at 1000 rpm for 2 min, and further diluted 1:1 with deionised water. Samples were analysed by LC-MS/MS[17].

In data set [3] the target is ESR1-Nanoluciferase fusion protein (Homo sapiens, UniProt P03372). Description: ERα nanoluciferase degradation assay. In kind it is cell-based. The note with it: for DC50: 24 hours, read-out: ERα nano-luciferase degradation DC50; for IC50: Table 1 source data, mean, read-out: ERa nanocluciferase degradation DC50 (nM), Mean IC50; for Dmax: read-out: ERα nano-luciferase Dmax. As for the experimental part: MCF7 pTRIPZ Cas9 cells stably transfected with pSMPNeo dual Luc ESR1 vector (containing ESR1-Nanoluciferase fusion protein/reporter and a Firefly luciferase reporter) were seeded into T175 flasks and incubated for 48 hours in RPMI 1640 media containing 10% (v/v) foetal bovine serum (FBS) and 2 mM L-Glutamine. The cells were then seeded at 20000 cells/well into 384-well plates containing compounds at concentrations ranging from 3.125 µM to 15.9 pM. Following 24 hours incubation (37 °C, 5% CO2), media was removed and ONE-Glow^TM EX luciferase reagent (Promega) was added to each well. Firefly luminescence was measured after 5 minutes using an Envision (PerkinElmer). NanoDLR^TM Stop and Glo® reagent (Promega) was added and incubated for ten minutes (room temperature), before measuring Nano luminescence using the Envision. Wells containing vehicle or 3 µM Fulvestrant were used to normalise data, and degradation of ESR1-Nanoluciferase was analysed using Genedata Screener.
ESR1-Nanoluciferase fusion protein, sequence (P40337 whole entry, one chain of several, the tested form may be a part): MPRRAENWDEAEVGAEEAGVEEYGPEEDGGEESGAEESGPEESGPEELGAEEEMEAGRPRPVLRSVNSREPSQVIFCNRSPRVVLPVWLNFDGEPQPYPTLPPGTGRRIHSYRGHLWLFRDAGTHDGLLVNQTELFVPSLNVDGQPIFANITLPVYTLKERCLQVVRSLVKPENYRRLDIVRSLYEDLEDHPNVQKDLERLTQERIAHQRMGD

Where [4] appears, read: mean ± s.d., read-out: ERα binding IC50.
Setting [5] is: 0% vehicle control, 100% fulvestrant, read-out: ERα imaging Dmax.
[6] abbreviates: pH 7.4, read-out: muHeps (mouse hepatocytes) clearance.
The mark [7] stands for this setting: MCF7, read-out: ERα imaging Dmax, 0% vehicle control, 100% fulvestrant.
Where [8] appears, read: Table S4 source data, mean, read-out: ERa binding, Mean.
The mark [9] stands for this setting: Table S4 source data, read-out: ERa degradation, Dmax (%).

Broadly, the Dmax is the greatest extent of degradation seen. Broadly, the DC50 is the midpoint of the concentration-degradation curve. As to `Cc1ncsc1-c1ccc(CNC(=O)[C@@H]2C[C@@H](O)CN2C(=O)[C@@H](NC(=O)COCCOc2cc(F)c([C@@H]3c4[nH]c5ccccc5c4C[C@@H](C)N3CC(C)(C)F)c(F)c2)C(C)(C)C)cc1` [Compound 1], the IC50 in data set [1] (setting [4]) was 1.3 nM. Besides, the Dmax at ERα (setting [5]) is 89 ± 1%. The molecule also yielded a DC50 on ERα of 0.6 ± 1.2 nM. Also, in data set [2] (setting [6]), the hepatocyte CLint at 1 µM was determined as 22 µL/min/1e6 cells.

`Cc1ncsc1-c1ccc(CNC(=O)[C@@H]2C[C@@H](O)CN2C(=O)[C@@H](NC(=O)COCCOCCOc2cc(F)c([C@@H]3c4[nH]c5ccccc5c4C[C@@H](C)N3CC(C)(C)F)c(F)c2)C(C)(C)C)cc1` [Compound 2]: the IC50 in data set [1] (setting [4]) came out at 0.6 nM. Besides, the Dmax at ERα (setting [5]) is 94%. On ERα, it took 0.8 nM to reach half-maximal degradation (DC50). Also, in data set [2] (setting [6]), the hepatocyte CLint at 1 µM was 40 µL/min/1e6 cells.

`Cc1ncsc1-c1ccc(CNC(=O)[C@@H]2C[C@@H](O)CN2C(=O)[C@@H](NC(=O)COCCOCCOCCOc2cc(F)c([C@@H]3c4[nH]c5ccccc5c4C[C@@H](C)N3CC(C)(C)F)c(F)c2)C(C)(C)C)cc1` [Compound 3]: the IC50 turned out to be 0.3 nM in data set [1] (setting [4]) and 3.1 nM in data set [3]. Moreover, the Dmax at ERα (setting [7]) came out at 99 ± 2%; in data set [3], 124%. In addition, the DC50 amounted to 0.3 ± 0.1 nM on ERα and 3.1 nM in data set [3]. For the same molecule, the hepatocyte CLint at 1 µM in data set [2] (setting [6]) was found to be 31 µL/min/1e6 cells.

With `Cc1ncsc1-c1ccc(CNC(=O)[C@@H]2C[C@@H](O)CN2C(=O)[C@@H](NC(=O)COCCOCCOCCOCCOc2cc(F)c([C@@H]3c4[nH]c5ccccc5c4C[C@@H](C)N3CC(C)(C)F)c(F)c2)C(C)(C)C)cc1` [Compound 4], the IC50 in data set [1] (setting [4]) was determined as 6.3 nM. The Dmax on ERα (setting [5]) is 101%. On ERα, the DC50 amounted to 3.2 nM. The hepatocyte CLint at 1 µM in data set [2] (setting [6]) was found to be 41 µL/min/1e6 cells.

`Cc1ncsc1-c1ccc(CNC(=O)[C@@H]2C[C@@H](O)CN2C(=O)[C@@H](NC(=O)COCCN2CCN(CCOc3cc(F)c([C@@H]4c5[nH]c6ccccc6c5C[C@@H](C)N4CC(C)(C)F)c(F)c3)CC2)C(C)(C)C)cc1` [Compound 6]: the figures for the IC50 in data set [1] (setting [4]) and in data set [3] were 1.3 nM and 46 nM, respectively. Further, the values for the Dmax (on ERα (setting [7]); in data set [3]) were 100 ± 0.5% and 88 ± 1%, respectively. The results for the DC50 (on ERα; in data set [3]) were 0.5 ± 0.4 nM and 46 ± 27 nM, respectively. Further, the hepatocyte CLint at 1 µM in data set [2] (setting [6]) was determined as 11 µL/min/1e6 cells.

As for `Cc1ncsc1-c1ccc(CNC(=O)[C@@H]2C[C@H](O)CN2C(=O)[C@@H](NC(=O)COCCCOCCCOc2cc(F)c([C@@H]3c4[nH]c5ccccc5c4C[C@@H](C)N3CC(C)(C)F)c(F)c2)C(C)(C)C)cc1` [Compound 7], the IC50 in data set [1] (setting [4]) is 1 nM; in data set [3], above 3000 nM. In addition, the Degradation vs fulvestrant at ERα (Log M -6.5, MCF7, 24 h) is 64.0% and 68.3%; at ERα (Log M -7.0), 68.3% and 71.6% and 59.3% and 58.8%; at ERα (Log M -7.5) it was 65.0% and 59.3% and 59.1% and 57.9%; at ERα (Log M -7.9) it was 65.6% and 48.2% and 57.7% and 56.0%; on ERα (Log M -8.5) it was 49.3% and 36.8% and 53.9% and 47.6%; at ERα (Log M -9.0) it was 32.2% and 32.7% and 45.9% and 42.5%. Moreover, at ERα (setting [7]), the Dmax was around 65%. For the same molecule, the 50% degradation concentration (DC50) at ERα was 3.1 nM; in data set [3], above 3000 nM.

In the case of `Cc1ncsc1-c1ccc(CNC(=O)[C@@H]2C[C@@H](O)CN2C(=O)[C@@H](NC(=O)COCCOCCCCOc2cc(F)c([C@@H]3c4[nH]c5ccccc5c4C[C@@H](C)N3CC(C)(C)F)c(F)c2)C(C)(C)C)cc1` [Compound 9], the IC50 in data set [1] (setting [8]) was 0.6 nM. This molecule showed a DC50 at ERα of 0.5 ± 0.1 nM. Also, at ERα (Table S4 source data), the “ERa degradation, Dmax (%)” value was 100%. The “muHeps, Mean Clint (mL/min/10^6 cells)” value in data set [2] (mouse hepatocytes, Table S4 source data) turned out to be 14 mL/min/10^6 cells.

As to `Cc1ncsc1-c1ccc(CNC(=O)[C@@H]2C[C@@H](O)CN2C(=O)[C@@H](NC(=O)COCCCOCCOc2cc(F)c([C@@H]3c4[nH]c5ccccc5c4C[C@@H](C)N3CC(C)(C)F)c(F)c2)C(C)(C)C)cc1` [Compound 10], the IC50 in data set [1] (setting [8]) was 0.5 nM. Besides, the Dmax on ERα (setting [9]) came out at 100%. The DC50 at ERα came to 0.4 nM. Besides, the hepatocyte CLint at 1 µM in data set [2] (pH 7.4, mouse hepatocytes, Table S4 source data, read-out: muHeps, Mean Clint (mL/min/10^6 cells)) came to 19 µL/min/1e6 cells; in data set [2] (setting [6]) it was 20 ± 1 µL/min/1e6 cells.

As for `Cc1ncsc1-c1ccc(CNC(=O)[C@@H]2C[C@@H](O)CN2C(=O)[C@@H](NC(=O)C2(OCCCOCCCOc3cc(F)c([C@@H]4c5[nH]c6ccccc6c5C[C@@H](C)N4CC(C)(C)F)c(F)c3)CC2)C(C)(C)C)cc1` [Compound 13], the IC50 in data set [1] (setting [8]) is 1 nM. Also, the Dmax at ERα (setting [9]) is 96%. On ERα, the DC50 was determined as 2 nM.

As for `Cc1ncsc1-c1ccc(CNC(=O)[C@@H]2C[C@@H](O)CN2C(=O)[C@@H](NC(=O)COCCCc2cccc(COc3cc(F)c([C@@H]4c5[nH]c6ccccc6c5C[C@@H](C)N4CC(C)(C)F)c(F)c3)c2)C(C)(C)C)cc1` [Compound 14], on ERα (setting [9]), the Dmax was determined as 103%. This molecule also registered a half-maximal degradation concentration (DC50) at ERα of 4.9 nM.

Turning to `Cc1ncsc1-c1ccc(CNC(=O)[C@@H]2C[C@@H](O)CN2C(=O)[C@@H](NC(=O)COCc2cccc(CCCOc3cc(F)c([C@@H]4c5[nH]c6ccccc6c5C[C@@H](C)N4CC(C)(C)F)c(F)c3)c2)C(C)(C)C)cc1` [Compound 15], the Dmax on ERα (setting [9]) is 106%. The molecule also yielded a DC50 on ERα of 14 nM.
